Like-named read-outs stand apart in the source and are kept apart here.
Molecular target: T1, REV-ERBα LBD (human; residues 281-614 Δ324-422) (Homo sapiens, UniProt P20393, DEL324-422)
T1 construct: 6×Histag-REV-ERBα LBD (human; residues 281-614 Δ324-422); made in house; host or cells: Escherichia coli
Test: TR-FRET corepressor interaction assay (REV-ERBα LBD, FITC-SMRT peptide)
Assay type: biochemical
Summary of the method: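 Compound serial dilutions (in DMSO, triplicate) incubated 2 h at 4 °C; Tb donor excited at 340 nm, emission read at 495 nm and FITC acceptor at 520 nm. TR-FRET ratio (520/495 nm) plotted against ligand concentration and fitted to a sigmoidal dose-response curve.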

[1] = FITC-SMRT peptide, read-out: REVERBα agonism (EC50 class, FRET assay)
[2] = Table 2, read-out: REVERBα agonism (EC50 class, FRET assay)

T1 sequence (P20393 with tags, fused parts or gaps DEL324-422): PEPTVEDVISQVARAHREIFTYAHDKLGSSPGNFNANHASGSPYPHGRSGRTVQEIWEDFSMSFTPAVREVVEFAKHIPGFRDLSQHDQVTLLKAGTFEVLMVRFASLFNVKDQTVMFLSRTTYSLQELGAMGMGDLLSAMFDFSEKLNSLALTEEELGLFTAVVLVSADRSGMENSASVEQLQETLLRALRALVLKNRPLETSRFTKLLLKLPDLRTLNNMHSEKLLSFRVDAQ
T1 sequence (Q9Y618 2335-2356 partner limits assumed): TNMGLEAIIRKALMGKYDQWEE

CC(C)(C)Cn1cc([C@H](NS(=O)(=O)C2COC2)C(F)(F)F)c2cc(F)c(-c3ccccc3C(F)(F)F)cc21 [Example 459, (S)—N-(2,2,2-trifluoro-1-(5-fluoro-1-neopentyl-6-(2-(trifluoromethyl)phenyl)-1H-indol-3-yl)ethyl)oxetane-3-sulfonamide]
EC50 [1]: < 0.5 µM

CC(C)(C)Cn1cc(CCNS(=O)(=O)C2CC2)c2ccc(-c3cccc(F)c3C(F)(F)F)cc21 [Example 393, N-(2-(6-(3-fluoro-2-(trifluoromethyl)phenyl)-1-neopentyl-1H-indol-3-yl)ethyl)cyclopropanesulfonamide]
EC50 [2]: 0.5 to 3 µM

CC(C)(C)Cn1cc([C@H](NS(=O)(=O)C2CCC2)C(F)(F)F)c2ccc(C3CCOCC3)cc21 [Example 519, (S)—N-(2,2,2-trifluoro-1-(1-neopentyl-6-(tetrahydro-2H-pyran-4-yl)-1H-indol-3-yl)ethyl)cyclobutanesulfonamide]
EC50 [1]: < 0.5 µM

CC(C)Cn1cc(C2(NS(=O)(=O)N(C)C)CC2)c2ccc(-c3ccncc3)cc21 [Example 207, dimethyl({1-[1-(2-methylpropyl)-6-(pyridin-4-yl)-1H-indol-3-yl]cyclopropyl}sulfamoyl)amine]
EC50 [2]: > 3 µM

COC(=O)c1ccccc1-c1ccc2c(CCNS(=O)(=O)N(C)C)cn(CC(C)C)c2c1 [Example 73, N′-{2-[6-(2-methyl carbonatephenyl)-1-(2-methylpropyl)-1H-indol-3-yl]ethyl}-N,N-dimethyl sulfuric diamide]
EC50 [2]: > 3 µM

CC(C)Cn1cc([C@H](NS(=O)(=O)C2CC2)C(F)(F)F)c2cc(F)c(-c3ccn[nH]3)cc21 [Example 377, (S)—N-(2,2,2-trifluoro-1-(5-fluoro-1-isobutyl-6-(1H-pyrazol-5-yl)-1H-indol-3-yl)ethyl)cyclopropanesulfonamide]
EC50 [2]: 0.5 to 3 µM

CC(C)(C)Cc1cn(CCNS(=O)(=O)C2CC2)c2ccc(-c3cccnc3)cc12 [Example 305, N-(2-(3-neopentyl-5-(pyridin-3-yl)-1H-indol-1-yl)ethyl)cyclopropanesulfonamide]
EC50 [2]: 0.5 to 3 µM

CC(C)(C)Cn1cc([C@H](NS(=O)(=O)C2CC2)C(F)F)c2ccc(-c3ccccc3C(F)(F)F)nc21 [Example 547, (S)—N-(2,2-difluoro-1-(1-neopentyl-6-(2-(trifluoromethyl)phenyl)-1H-pyrrolo[2,3-b]pyridin-3-yl)ethyl)cyclopropanesulfonamide]
EC50 [1]: < 0.5 µM

Cc1ccc(-c2ccc3c(CCNS(=O)(=O)C4CC4)cn(CC(C)(C)C)c3c2)c(C(F)(F)F)c1 [Example 398, N-(2-(6-(4-methyl-2-(trifluoromethyl)phenyl)-1-neopentyl-1H-indol-3-yl)ethyl)cyclopropanesulfonamide]
EC50 [2]: < 0.5 µM

CC(C)(C)Cn1cc([C@H](NS(=O)(=O)C2CCC2)C(F)F)c2ccc(-c3ccc(F)cc3C(F)(F)F)cc21 [Example 562, (S)—N-(2,2-difluoro-1-(6-(4-fluoro-2-(trifluoromethyl)phenyl)-1-neopentyl-1H-indol-3-yl)ethyl)cyclobutanesulfonamide]
EC50 [1]: < 0.5 µM

CC(C)C(=O)n1cc(CNS(=O)(=O)N(C)C)c2ccc(-c3ccccc3C(F)(F)F)cc21 [Example 185, 1-(3-{[(dimethylsulfamoyl)amino]methyl}-6-[2-(trifluoromethyl)phenyl]-1H-indol-1-yl)-2-methylpropan-1-one]
EC50 [2]: < 0.5 µM

CC(C)(C)Cc1cn(CCNS(=O)(=O)C2CC2)c2cc(F)c(-c3ccc(F)cc3C(F)(F)F)cc12 [Example 294]
EC50 [2]: < 0.5 µM

CC(C)(C)Cn1cc([C@H](NS(=O)(=O)C2CCC2)C(F)(F)F)c2cc(F)c(-c3c(F)cccc3C(F)(F)F)cc21 [Example 511, N-((1S)-2,2,2-trifluoro-1-(5-fluoro-6-(2-fluoro-6-(trifluoromethyl)phenyl)-1-neopentyl-1H-indol-3-yl)ethyl)cyclobutanesulfonamide]
EC50 [1]: 0.5 to 3 µM

CNS(=O)(=O)c1ccccc1-c1ccc2c(CCNS(=O)(=O)N(C)C)cn(CC(C)C)c2c1 [Example 72, N′-{2-[6-(2-N′-methylsulfonamidophenyl)-1-(2-methylpropyl)-1H-indol-3-yl]ethyl}-N,N-dimethylsulfuric diamide]
EC50 [2]: 0.5 to 3 µM

CC(C)(C)Cn1cc([C@H](NS(=O)(=O)C2CCC2)C(F)F)c2ccc(-c3c(F)cccc3C(F)(F)F)cc21 [Example 527, (S)—N-(2,2-difluoro-1-(6-(2-fluoro-6-(trifluoromethyl)phenyl)-1-neopentyl-1H-indol-3-yl)ethyl)cyclobutanesulfonamide]
EC50 [1]: < 0.5 µM

CC(C)Cn1cc(C(C)N[S+]([O-])C(C)(C)C)c2ccc(-c3ccccc3C(F)(F)F)cc21 (centres unmarked) [Compound 291]
EC50 [2]: > 3 µM

CC(C)(C)Cn1cc([C@H](NS(=O)(=O)C2CC2)C(F)(F)F)c2cc(F)c(C3CC3)cc21 [Example 327, (S)—N-(1-(6-cyclopropyl-5-fluoro-1-neopentyl-1H-indol-3-yl)-2,2,2-trifluoroethyl)cyclopropanesulfonamide]
EC50 [2]: < 0.5 µM

CC1(Cn2cc([C@H](NS(=O)(=O)C3CC3)C(F)(F)F)c3cc(F)c(-c4ccccc4C(F)(F)F)cc32)COC1 [Example 489, N-[(1S)-2,2,2-trifluoro-1-[5-fluoro-1-[(3-methyloxetan-3-yl)methyl]-6-[2-(trifluoromethyl)phenyl]indol-3-yl]ethyl]cyclopropanesulfonamide]
EC50 [1]: < 0.5 µM

CN(C)S(=O)(=O)NCCc1cn(Cc2cccc(C(F)(F)F)c2)c2cc(-c3ccncc3)ccc12 [Example 142, N-{2-[6-(pyridin-4-yl)-1-(3-trifluoromethylbenzyl)-1H-indol-3-yl]ethyl}-N,N-dimethyl-sulfuric diamide]
EC50 [2]: 0.5 to 3 µM

CC(C)Cn1cc(CNS(=O)(=O)N(C)C)c2ccc(-c3ccncc3)cc21 [Compound 238]
EC50 [2]: 0.5 to 3 µM

CC(C)(C)Cn1cc([C@H](NS(=O)(=O)C2CC2)C(F)(F)F)c2ccc(-c3c(F)cccc3Cl)cc21 [Example 464, (S)—N-(1-(6-(2-chloro-6-fluorophenyl)-1-neopentyl-1H-indol-3-yl)-2,2,2-trifluoroethyl)cyclopropanesulfonamide]
EC50 [1]: < 0.5 µM

[2H]C([2H])(n1cc([C@H](NS(=O)(=O)C2CCC2)C(F)(F)F)c2ccc(-c3ccccc3C(F)(F)F)cc21)C(C)(C)C [Example 517, (S)—N-(1-(1-(2,2-dimethylpropyl-1,1-d2)-6-(2-(trifluoromethyl)phenyl)-1H-indol-3-yl)-2,2,2-trifluoroethyl)cyclobutanesulfonamide]
EC50 [1]: < 0.5 µM

CC(C)Cn1cc(CCNS(=O)(=O)N(C)C)c2ccc(F)cc21 [Example 110, ({2-[6-fluoro-1-(2-methylpropyl)-1H-indol-3-yl]ethyl}sulfamoyl)dimethylamine]
EC50 [2]: 0.5 to 3 µM

O=S(=O)(N[C@@H](c1cn(CC2CCCC2)c2cc(-c3ccccc3C(F)(F)F)c(F)cc12)C(F)(F)F)C1CCC1 [Example 421, (S)—N-(1-(1-(cyclopentylmethyl)-5-fluoro-6-(2-(trifluoromethyl)phenyl)-1H-indol-3-yl)-2,2,2-trifluoroethyl)cyclobutanesulfonamide]
EC50 [2]: < 0.5 µM

CC(C)Cn1cc(CC(NS(=O)(=O)C(C)C)C(F)(F)F)c2ccc(-c3ccncc3)cc21 (centres unmarked) [Compound 273]
EC50 [2]: > 3 µM

CC(C)Cn1cc(CCNS(=O)(=O)N(C)C)c2ccc(-c3cccc(-c4ccccc4)c3)cc21 [Example 55, N-{2-[6-([1,1′-biphenyl]-3-yl)-1-(2-methylpropyl)-1H-indol-3-yl]ethyl}-N,N-dimethyl-sulfuric diamide]
EC50 [2]: 0.5 to 3 µM

Cc1cccc(C)c1-c1ccc2c(CCNS(=O)(=O)N(C)C)cn(CC(C)C)c2c1 [Example 81, N-{2-[6-(2,6-dimethylphenyl)-1-(2-methylpropyl)-1H-indol-3-yl]ethyl}-N,N-dimethyl-sulfuric diamide]
EC50 [2]: < 0.5 µM

O=S(=O)(N[C@@H](c1cn(CC2CC2)c2cc(-c3ccccc3C(F)(F)F)c(F)cc12)C(F)(F)F)C1CC1 [Example 349, (S)—N-(1-(1-(cyclopropylmethyl)-5-fluoro-6-(2-(trifluoromethyl)phenyl)-1H-indol-3-yl)-2,2,2-trifluoroethyl)cyclopropanesulfonamide]
EC50 [2]: < 0.5 µM

CC(C)Cn1cc(C(C)CNS(=O)(=O)C(C)C)c2ccc(-c3ccncc3)cc21 (centres unmarked) [Compound 251]
EC50 [2]: < 0.5 µM

CN(C)S(=O)(=O)N[C@@H](c1cn(CC(C)(C)C)c2cc(-c3ccccc3Cl)c(F)cc12)C(F)(F)F [Example 330, {[(1S)-1-[6-(2-chlorophenyl)-1-(2,2-dimethylpropyl)-5-fluoro-1H-indol-3-yl]-2,2,2-trifluoroethyl]sulfamoyl}dimethylamine]
EC50 [2]: < 0.5 µM

CN(C)S(=O)(=O)NCCc1cn(Cc2ccc(F)cc2)c2cc(-c3ccncc3)ccc12 [Example 146, N-{2-[6-(pyridin-4-yl)-1-(4-fluorobenzyl)-1H-indol-3-yl]ethyl}-N,N-dimethylsulfuric diamide]
EC50 [2]: 0.5 to 3 µM

CC(C)S(=O)(=O)NCCc1cn(CC(C(F)(F)F)C(F)(F)F)c2cc(-c3ccncc3)ccc12 [Compound 271]
EC50 [2]: 0.5 to 3 µM

CC(C)Cn1cc([C@H](NS(=O)(=O)C2CC2)C(F)(F)F)c2ccc(-c3ccc(F)cc3C(F)(F)F)cc21 [Example 324, (S)—N-(2,2,2-trifluoro-1-(6-(4-fluoro-2-(trifluoromethyl)phenyl)-1-isobutyl-1H-indol-3-yl)ethyl)cyclopropanesulfonamide]
EC50 [2]: < 0.5 µM

CC(C)Cn1cc(CCNS(=O)(=O)N(C)C)c2ccc(-c3ccc(F)cc3)cc21 [Example 45, N-{2-[6-(4-fluorophenyl)-1-(2-methylpropyl)-1H-indol-3-yl]ethyl}-N,N-dimethylsulfuric diamide]
EC50 [2]: 0.5 to 3 µM

CN(C)S(=O)(=O)NCCc1cn(Cc2ccccc2Br)c2cc(-c3ccncc3)ccc12 [Example 140, N′-{2-[6-(pyridin-4-yl)-1-(2-bromobenzyl)-1H-indol-3-yl]ethyl}-N,N-dimethylsulfuric diamide]
EC50 [2]: > 3 µM

— US20230339886A1 (University of Florida Research Foundation, Incorporated, priority 2020, published 2023)
